The target in assay [1] is T1, PGI2 receptor in the human blood platelet membrane fraction (Homo sapiens, UniProt P43119).
T1 construct: human blood platelet membrane fraction (0.3 mg protein) was added; from tissue; host or cells: human blood platelets (membrane fraction)
In words: Inhibitory activity on binding of [^3 H]-iloprost to PGI2 receptor in the human blood platelet membrane fraction. The following applies: 10 nM [^3 H]-iloprost, human blood platelet membrane fraction (0.3 mg protein), pH 7.4, 24° C., 30 min; read-out: IC50, inhibition of [^3 H]-iloprost binding to PGI2 receptor. The procedure: i) Inhibitory activity on binding of [^3 H]-iloprost to PGI2 receptor in the human blood platelet membrane fraction
50 mM Tris-HCl buffer (pH 7.4) containing 15 mM MgCl2, 5 mM EDTA and 10 nM [^3 H]-iloprost were used as reaction medium. To 0.2 ml of the reaction medium, human blood platelet membrane fraction (0.3 mg protein) was added with or without a test compound. The mixture was incubated at 24° C. for 30 min. After incubation, 4 ml of ice-cold 10 mM Tris-HCl buffer (pH 7.4) was added to the reaction mixture, the mixture was filtered through Whatman GF/B glass fiber filter and washed 4 times with 4 ml of ice-cold 10 mM Tri-HCl buffer (pH 7.4) to separate bound and free [^3 H]-iloprost. After washing, the filter was dried and radioactivity was counted. Non-specific binding was obtained by performing parallel binding experiments in the presence of 10 μM non-labelled iloprost. Specific binding was calculated by subtracting the non-specific binding from the total binding.
The inhibitory effect of a test compound was calculated from the following equation.
The percentage of inhibition (%)=100-(B1 /B0 ×100)
B1 :specific [^3 H]-iloprost binding in the presence of a test compound
B0 :specific [^3 H]-iloprost binding in the absence of a test compound

The test system of assay [2] is human blood platelet aggregation. The experiment in a line: Inhibitory effect on human blood platelet aggregation (ADP-induced, platelet-rich plasma). Format: cell-based. The following applies: human PRP (5×10^5 platelets/mm^3), compound added 1 minute prior to ADP (4 μm), read-out: IC50, inhibition of human blood platelet aggregation. Here is the method: ii) Inhibitory effect on human blood platelet aggregation
Platelet-rich plasma (PRP) was prepared from human blood (5×10^5 platelets/mm^3) and a test compound was added to PRP 1 minute prior to the addition of ADP (4 μm). The aggregation was monitored using a platelet aggregometer (NBS HEMA TRACER 601, Niko Bioscience, Japan).

T1 sequence (P43119 whole entry): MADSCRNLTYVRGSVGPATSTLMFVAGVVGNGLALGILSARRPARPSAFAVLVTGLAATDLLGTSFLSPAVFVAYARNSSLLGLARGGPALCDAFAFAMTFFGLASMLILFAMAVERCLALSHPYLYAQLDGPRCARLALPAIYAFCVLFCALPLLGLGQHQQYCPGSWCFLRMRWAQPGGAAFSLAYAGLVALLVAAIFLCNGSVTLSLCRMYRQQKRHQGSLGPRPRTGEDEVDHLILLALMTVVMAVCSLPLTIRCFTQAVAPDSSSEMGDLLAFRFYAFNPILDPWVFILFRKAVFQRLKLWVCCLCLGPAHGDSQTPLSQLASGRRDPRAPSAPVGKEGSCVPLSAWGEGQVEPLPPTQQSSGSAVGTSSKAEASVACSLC

With `O=C(O)COc1cccc(CCCC(=O)N(Cc2ccccc2)Cc2ccccc2)c1` [8(l), 3-[3-(N,N-Dibenzylaminocarbonyl)propyl]phenoxyacetic acid], the half-inhibitory concentration (IC50) in assay [1] was 1.5 µM.

Turning to `O=C(O)COc1cccc(CCCC(=O)NC(c2ccccc2)c2ccccc2)c1` [8(n), 3-(3-Diphenylmethylaminocarbonylpropyl)phenoxyacetic acid], the 50% inhibitory concentration (IC50) in assay [1] is 2 µM; in assay [2], 3.1 µM. The matching figures for `O=C(O)COc1cccc(CCCC(=O)NN(c2ccccc2)c2ccccc2)c1` [8(o), 3-[3-[(N,N-Diphenylamino)aminocarbonyl]propyl]phenoxyacetic acid]: 0.46 µM and 0.97 µM. On to `O=C(O)COc1cccc(CCCn2ncc(C(c3ccccc3)c3ccccc3)n2)c1` [17(b), 3-[3-(4-Diphenylmethyl-1,2,3-triazol-2-yl)propyl]phenoxyacetic acid], for which the IC50 in assay [1] is 0.36 µM; in assay [2], 0.24 µM. Regarding `O=C(O)COc1cccc(CCCn2cc(C(c3ccccc3)c3ccccc3)nn2)c1` [17(c), 3-[3-(4-Diphenylmethyl-1,2,3-triazol-1-yl)propyl]phenoxyacetic acid], the results for the half-inhibitory concentration (IC50) in assay [1] and in assay [2] were 0.27 µM and 0.47 µM, respectively. Consider `O=C(O)COc1cccc(OCCn2cc(C(c3ccccc3)c3ccccc3)cn2)c1` [17(cc), 3-[2-(4-Diphenylmethylpyrazol-1-yl)ethyloxy]phenoxyacetic acid], for which the IC50 in assay [1] amounted to 0.26 µM; in assay [2], 0.41 µM.

In the case of `O=C(O)COc1cccc(/C=C/Cn2cc(C(c3ccccc3)c3ccccc3)cn2)c1` [17(i), 3-[3-(4-Diphenylmethylpyrazol-1-yl)-1-propenyl]phenoxyacetic acid], in assay [1], the IC50 is 0.22 µM.

Take `O=C(O)COc1ccccc1CCCCn1cc(C(c2ccccc2)c2cccnc2)cn1` (stereo not drawn) [17(n)]: the concentration for half-maximal inhibition (IC50) in assay [1] stood at 2 µM. Regarding `Cc1c(/C=C/Cn2cc(C(c3ccccc3)c3ccccc3)cn2)cccc1OCC(=O)O` [17(s), 2-Methyl-3-[3-(4-diphenylmethylpyrazol-1-yl)-1-propenyl]phenoxyaceticacid], the IC50 is 0.78 µM in assay [1] and 3.2 µM in assay [2]. As to `O=C(O)COc1cccc(CCCON=C(c2ccccc2)c2cccnc2)c1` [17(x), 3-[3-[1-Phenyl-1-(3-pyridyl)methylideneaminooxy]propyl]phenoxyacetic acid], the IC50 in assay [1] came to 5 µM. In the case of `O=C(O)COc1cccc(CCCC=NOC(c2ccccc2)c2ccccc2)c1` [Example 2, 3-(4-Diphenylmethyloxyiminobutyl)phenoxyacetic acid], the IC50 in assay [1] is 4.8 µM. For `CCCC(CCCc1cccc(OCC(=O)O)c1)=NOC(c1ccccc1)c1ccccc1` [Example 4, 3-(4-Diphenylmethyloxyiminoheptyl)phenoxyacetic acid], the results for the IC50 in assay [1] and in assay [2] were 1.6 µM and 3.7 µM, respectively. For the compound `CCCC(CCCc1cccc(OCC(=O)O)c1)NOC(c1ccccc1)c1ccccc1` (stereo not drawn) [Example 6, 3-(4-Diphenylmethyloxyaminoheptyl)phenoxyacetic acid], in assay [1], the IC50 came to 3 µM. On to `O=C(O)COc1cccc(CCCCOC(c2ccccc2)c2ccccc2)c1` [Example 12, 3-(4-Diphenylmethyloxybutyl)phenoxyacetic acid], for which the IC50 in assay [1] is 1.3 µM; in assay [2], 5 µM. As to `COC(=O)COc1cccc(CCCC(=O)OC(c2ccccc2)c2ccccc2)c1` [Example 15, Methyl 3-(3-diphenylmethyloxycarbonylpropyl)phenoxyacetate], the IC50 in assay [1] came out at 4 µM. For the compound `O=C(O)COc1cccc(CCCn2cc(C(c3ccccc3)c3ccccc3)cn2)c1` [Example 17, 3-[3-(4-diphenylmethylpyrazol-1-yl)propyl]phenoxyacetic acid], the half-maximal inhibitory concentration (IC50) in assay [1] stood at 0.15 µM; in assay [2] it was 0.42 µM. On the same counts, the results for `O=C(O)COc1cccc(CCCc2cc(C(c3ccccc3)c3ccccc3)on2)c1` [Example 19, 3-[3-(5-diphenylmethylisoxazol-3-yl)propyl]phenoxyacetic acid] are 0.12 µM and 0.16 µM. On to `O=C(O)COc1cccc(CCCc2nc(C(c3ccccc3)c3ccccc3)no2)c1` [Example 21, 3-[3-(3-diphenylmethyl-1,2,4-oxadiazol-5-yl)propyl]phenoxyacetic acid], for which the concentration for half-maximal inhibition (IC50) in assay [1] was determined as 4.4 µM. As for `O=C(O)COc1cccc(CCCc2noc(C(c3ccccc3)c3ccccc3)n2)c1` [Example 23, 3-[3-(5-diphenylmethyl-1,2,4-oxadiazol-3-yl)propyl]phenoxyacetic acid], the IC50 in assay [1] turned out to be 1.5 µM; in assay [2], 0.37 µM.

Values taken from patent publication US5378716A, “Pyrazol-1-yl phenoxyacetic acid compounds which have useful pharmaceutical utility” (Ono Pharmaceutical Co., Ltd., priority 1992, dated 1995).
